Test results from ChEMBL document CHEMBL1221220, “Transport and signaling via the amino acid binding site of the yeast Gap1 amino acid transceptor” (Nat Chem Biol, 2009).
Non-standard residues stand in square brackets, D forms with d. Residues, ends and D or L forms follow the SMILES beside them. Hyp = O=C(O)[C@@H]1C[C@@H](O)CN1; Sar = CNCC(=O)O
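Note: amino acid uptake through Gap1 in nitrogen-starved wild-type yeast cells, measured after 60 s and expressed relative to L-citrulline.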

What follows are compounds tested against T1, General amino-acid permease GAP1 (Saccharomyces cerevisiae) (UniProt P19145). Conditions: sigma1278b, at 5 mM.
T1 sequence (whole entry): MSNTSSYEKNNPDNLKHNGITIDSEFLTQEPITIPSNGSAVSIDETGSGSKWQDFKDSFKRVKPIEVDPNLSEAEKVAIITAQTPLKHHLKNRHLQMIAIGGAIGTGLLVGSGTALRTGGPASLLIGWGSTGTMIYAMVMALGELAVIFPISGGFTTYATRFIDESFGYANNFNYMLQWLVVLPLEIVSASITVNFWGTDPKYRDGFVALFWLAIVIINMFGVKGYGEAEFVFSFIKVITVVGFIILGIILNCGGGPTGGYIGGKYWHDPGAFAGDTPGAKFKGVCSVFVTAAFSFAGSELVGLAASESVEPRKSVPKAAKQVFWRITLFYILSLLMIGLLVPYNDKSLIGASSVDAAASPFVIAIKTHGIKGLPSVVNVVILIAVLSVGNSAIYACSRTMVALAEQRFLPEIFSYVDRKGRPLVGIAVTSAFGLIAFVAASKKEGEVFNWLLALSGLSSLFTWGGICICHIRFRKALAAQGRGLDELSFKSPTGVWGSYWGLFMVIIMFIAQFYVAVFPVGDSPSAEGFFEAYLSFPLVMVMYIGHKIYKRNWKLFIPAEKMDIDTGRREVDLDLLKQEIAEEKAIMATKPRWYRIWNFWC
Description: Inhibition of nitrogen-starved wild type sigma1278b yeast Gap1-mediated amino acid uptake at 5 mM after 60 secs relative to L-citrulline
In the case of `NCCCC[C@H](NC(=O)[C@@H](N)CCCCN)C(=O)O`, the inhibition is reported as under 15%.
`NC(=O)CC[C@H](NC(=O)[C@@H]1CCCN1)C(=O)O` (H-Pro-Gln-OH) showed an inhibition of under 15%.
In the case of `NCC(=O)NCC(=O)O` (H-Gly-Gly-OH), the inhibition is reported as under 15%.
With `C[C@H](N)C(=O)NCC(=O)O` (racemic) the inhibition was over 30%.
For `N[C@@H](Cc1cnc[nH]1)C(=O)N[C@@H](CCC(=O)O)C(=O)O` (H-His-Glu-OH), the inhibition was under 15%.
For `CC(C)C[C@@H](N)C(=O)NCC(=O)NCC(=O)O` (H-[dL]-Gly-Gly-OH), the inhibition was under 15%.
`CC[C@H](C)[C@H](N)C(=O)N[C@@H](C)C(=O)N1CCC[C@H]1C(=O)O` (H-Ile-Ala-Pro-OH) gave an inhibition of 15%.
For `CSCCC(NC(=O)C(C)N)C(=O)O` (racemic), the inhibition was under 15%.
With `N[C@@H](CO)C(=O)N[C@@H](CO)C(=O)N[C@@H](CO)C(=O)O` (H-Ser-Ser-Ser-OH) the inhibition was under 15%.
Compound `N[C@@H]1CONC1=O` has an inhibition of under 15%.
In the case of `CC(C)[C@H](N)C(N)=O`, the inhibition is reported as under 15%.
`CC(C)C[C@H](NC(=O)OC(C)(C)C)C(=O)O` showed an inhibition of under 15%.
For `C[C@H](NC(=O)[C@@H](N)CCC(N)=O)C(=O)O` (H-Gln-Ala-OH), the inhibition was under 15%.
Work on `N[C@H](CO)Cc1c[nH]c2ccccc12` yielded an inhibition of under 15%.
`CC(C)[C@H](N)C(=O)N[C@H](C(=O)N[C@@H](C(=O)O)C(C)C)C(C)C` (H-Val-Val-[dV]-OH) gave an inhibition of under 15%.
`CCC[C@H](N)C(=O)OC` was tested, and the inhibition was under 15%.
With `CSCC[C@H](NC(=O)[C@@H](N)Cc1c[nH]c2ccccc12)C(=O)O` (H-Trp-Met-OH) the inhibition was under 15%.
`CCOC(=O)C(N)Cc1c[nH]c2ccccc12` (racemic) was tested, and the inhibition was under 15%.
Compound `CC(C)C[C@H](NC(=O)CN)C(=O)N[C@@H](Cc1ccc(O)cc1)C(=O)O` (H-Gly-Leu-Tyr-OH) has an inhibition of under 15%.
Compound `NCC(N)=O` has an inhibition of under 15%.
In the case of `NCC(=O)NCC(=O)N[C@@H](CC(=O)O)C(=O)O` (H-Gly-Gly-Asp-OH), the inhibition is reported as under 15%.
In the case of `CC(C)(C)OC(=O)NC(Cc1ccc(O)cc1)C(=O)O` (stereo in doubt), the inhibition is reported as under 15%.
`CSCC[C@H](N)C(=O)NCC(=O)NCC(=O)O` (H-Met-Gly-Gly-OH) was tested, and the inhibition was under 15%.
Work on `CC(C)C[C@H](NC(=O)CN)C(N)=O` yielded an inhibition of under 15%.
Work on `CC(C)C[C@H](NC(=O)[C@@H](N)CC(C)C)C(=O)O` yielded an inhibition of under 15%.
Work on `C[C@H](N)C(=O)N[C@@H](CC(N)=O)C(=O)O` (H-Ala-Asn-OH) yielded an inhibition of over 30%.
With `CC(C)[C@H](N)C(=O)NCC(=O)O` (H-Val-Gly-OH) the inhibition was under 15%.
Work on `NCC(=O)N[C@@H](Cc1c[nH]c2ccccc12)C(=O)O` (H-Gly-Trp-OH) yielded an inhibition of over 30%.
`C[C@@H](NC(=O)CN)C(=O)O` (H-Gly-[dA]-OH) gave an inhibition of under 15%.
Work on `N[C@@H](Cc1ccc(O)cc1)C(=O)N[C@@H](Cc1ccc(O)cc1)C(=O)N[C@@H](Cc1ccc(O)cc1)C(=O)O` (H-Tyr-Tyr-Tyr-OH) yielded an inhibition of under 15%.
`N[C@@H](Cc1ccc(O)cc1)C(=O)NCC(=O)O` gave an inhibition of under 15%.
`COC(=O)CC[C@H](NC(=O)OC(C)(C)C)C(=O)O` showed an inhibition of under 15%.
With `CC[C@H](C)[C@H](NC(=O)CN)C(=O)NCC(=O)O` (H-Gly-Ile-Gly-OH) the inhibition was under 15%.
`NCC(=O)N[C@@H](CCC(=O)O)C(=O)O` (H-Gly-Glu-OH) gave an inhibition of under 15%.
Compound `C[C@H](N)C(=O)N[C@@H](CO)C(=O)O` (H-Ala-Ser-OH) has an inhibition of over 30%.
`CC(C)C(NC(=O)CN)C(=O)O` (racemic) gave an inhibition of under 15%.
`CC[C@H](C)[C@H](N)C(N)=O` gave an inhibition of under 15%.
`COC(=O)[C@@H]1C[C@@H](O)CN1` showed an inhibition of under 15%.
`N[C@@H](Cc1ccco1)C(=O)O` was tested, and the inhibition was over 30%.
Compound `COC(=O)[C@@H](N)Cc1ccc(O)cc1` has an inhibition of under 15%.
`COC(=O)[C@H](CO)NC(=O)OC(C)(C)C` showed an inhibition of under 15%.
In the case of `N[C@@H](Cc1cnc[nH]1)C(=O)NCC(=O)N[C@@H](Cc1cnc[nH]1)C(=O)O` (H-His-Gly-His-OH), the inhibition is reported as under 15%.
`NCC[C@H]1CC[C@H](C(=O)O)CC1` showed an inhibition of under 15%.
Work on `O=C(O)C1CCCCN1` (configuration not stated) yielded an inhibition of under 15%.
Compound `C[C@H](NC=O)C(=O)O` has an inhibition of over 30%.
In the case of `NCC(=O)NCC(=O)N[C@@H](CCC(=O)O)C(=O)O` (H-Gly-Gly-Glu-OH), the inhibition is reported as under 15%.
Compound `N[C@@H](Cc1ccc(O)cc1)C(=O)N[C@@H](CCC(=O)O)C(=O)O` (H-Tyr-Glu-OH) has an inhibition of under 15%.
For `N[C@@H](Cc1ccc(O)cc1)C(=O)NCC(=O)NCC(=O)O` (H-Tyr-Gly-Gly-OH), the inhibition was under 15%.
`CC(=O)N[C@H](C(=O)O)[C@@H](C)OC(C)(C)C` was tested, and the inhibition was under 15%.
Compound `CC(=O)N[C@@H](CC[S+](C)[O-])C(=O)O` (some centres not stated) has an inhibition of under 15%.
`CC(C)C[C@H](NC(=O)CNC(=O)c1ccccc1)C(N)=O` showed an inhibition of under 15%.
`NCC(=O)N[C@@H](Cc1ccccc1)C(=O)O` gave an inhibition of over 30%.
Compound `CC(C)C[C@H](N)C(=O)N1C[C@H](O)C[C@H]1C(=O)O` (H-Leu-[Hyp]-OH) has an inhibition of under 15%.
With `CN(CC(=O)O)C(=O)CN` (H-Gly-[Sar]-OH) the inhibition was under 15%.
For `CC(C)C[C@H](NC(=O)[C@H](CC(C)C)NC(=O)[C@@H](N)C(C)C)C(=O)O` (H-Val-Leu-Leu-OH), the inhibition was under 15%.
`CSCC[C@H](NC(=O)[C@@H](N)Cc1cnc[nH]1)C(=O)O` (H-His-Met-OH) gave an inhibition of 15%.
`C[C@@H](NC(=O)[C@@H](N)CCC(=O)O)C(=O)O` gave an inhibition of under 15%.
Work on `CC(C)C[C@H](NC(=O)[C@@H](N)CC(C)C)C(=O)N[C@@H](CCC(=O)O)C(=O)O` (H-Leu-Leu-Glu-OH) yielded an inhibition of 15%.
For `C[C@@H](O)[C@H](N)C(=O)N[C@@H](CCCCN)C(=O)N[C@@H](Cc1ccc(O)cc1)C(=O)O` (H-Thr-Lys-Tyr-OH), the inhibition was under 15%.
`CC[C@H](C)[C@H](N)C(=O)N[C@@H](CC(C)C)C(=O)N[C@@H](CC(C)C)C(=O)O` (H-Ile-Leu-Leu-OH) was tested, and the inhibition was over 30%.
Work on `C[C@H](N)C(=O)OC(C)(C)C` yielded an inhibition of under 15%.
In the case of `O=C(O)[C@@H]1C=CCN1`, the inhibition is reported as under 15%.
Compound `CC(C)CC(NC(=O)C(C)N)C(=O)O` (racemic) has an inhibition of 15%.
`C[C@@H](O)[C@@H](NC(=O)CN)C(=O)O` gave an inhibition of under 15%.
`C[C@@H](O)[C@H](NC(=O)[C@H](CCCCN)NC(=O)[C@@H](N)Cc1ccc(O)cc1)C(=O)O` (H-Tyr-Lys-Thr-OH) was tested, and the inhibition was under 15%.
Work on `CC(=O)N[C@@H](CCC(=O)OC(C)(C)C)C(=O)O` yielded an inhibition of under 15%.
With `NCCS(=O)(=O)O` the inhibition was under 15%.
In the case of `C[C@H](NC(=O)[C@@H](N)Cc1ccc(O)cc1)C(=O)N[C@@H](CCCNC(=N)N)C(=O)O` (H-Tyr-Ala-Arg-OH), the inhibition is reported as under 15%.
`C[C@@H](O)C(NC(=O)CN)C(=O)O` (mixture of isomers) gave an inhibition of 15%.
With `CSCC[C@H](NC(=O)[C@@H](N)[C@@H](C)O)C(=O)O` (H-Thr-Met-OH) the inhibition was under 15%.
`CC(C)[C@H](NC(=O)[C@@H](N)Cc1ccccc1)C(=O)O` (H-Phe-Val-OH) showed an inhibition of under 15%.
With `NCC(=O)N[C@@H](CC(=O)O)C(=O)O` (H-Gly-Asp-OH) the inhibition was under 15%.
Work on `CC(C)C[C@H](NC(=O)[C@@H](N)CC(C)C)C(=O)N[C@@H](CC(=O)O)C(=O)O` (H-Leu-Leu-Asp-OH) yielded an inhibition of over 30%.
`CC(=O)NC(Cc1ccc(Br)cc1)C(=O)O` (racemic) gave an inhibition of 15%.
For `CSCC[C@H](N)C(=O)NCC(=O)O` (H-Met-Gly-OH), the inhibition was under 15%.
Compound `CSCC[C@H](NC(=O)[C@H](C)N)C(=O)O` (H-Ala-Met-OH) has an inhibition of over 30%.
`CCC[C@@H](NC(=O)[C@@H](N)CCC(=O)O)C(=O)O` gave an inhibition of under 15%.
